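96-well plates; 48 h exposure; 5 concentrations. Endpoints by linear interpolation between flanking doses. Not reached: highest tested concentration assigned. TGI marks complete inhibition of growth.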
Test system: SN12K1 renal
Test: NCI-60 cell line screen, 48 h

Compound	TGI
COc1cc(O)c2c(c1)C(=O)c1cc3c(c(O)c1C2=O)C(OC1OC(C)C(O)C(O)C1OC)C(OC)C(C)(O)C3=O (configuration not stated)	7.14 µM
CNC(=O)c1cccc2c(Nc3ccc(NS(C)(=O)=O)cc3OC)c3cccc(C)c3nc12	1.61 µM

Source: PubChem BioAssay (NCI)
